Data as given in patent publication US7803930B2, “Antisense modulation of apolipoprotein B-expression” (Isis Pharmaceuticals, Inc., priority 2002, dated 2010).
In the oligonucleotide strings, read from the 5' end, every base follows the letter of its sugar. An asterisk marks phosphorothioate; unmarked linkages are phosphodiester. Other units and linkages are bracketed, terminal groups are in braces. A string of capitals states the bases alone. e = 2'-O-(2-methoxyethyl) (MOE); [5mC] = 5-methylcytosine; d = 2'-deoxy (DNA)

Test system: human apolipoprotein B mRNA
Assay: Inhibition of human apolipoprotein B mRNA levels in HepG2 cells, quantitative real-time PCR
Format: cell-based
Details: HepG2 cells; for % inhibition of apolipoprotein B mRNA levels: normalized to untreated control, average of two experiments
How it was run: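 HepG2 cells at 80% confluency were transfected with antisense oligonucleotide using 3.75 μg/mL Lipofectin in Opti-MEM for 4-7 h and harvested 16-24 h after treatment. Apolipoprotein B mRNA was measured by real-time RT-PCR and normalized to GAPDH or RiboGreen total RNA. Percent inhibition came from untreated-control standard curves.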

[1] = Table 11 gene walk, 50 nM, averages from two experiments
[2] = Table 11 gene walk, 150 nM, averages from two experiments
[3] = Table 13 gene walk, 50 nM, averages from two experiments
[4] = Table 13 gene walk, 150 nM, averages from two experiments
[5] = Table 17 variable gap, 50 nM, averages from three experiments
[6] = Table 17 variable gap, 150 nM, averages from three experiments
[7] = 50 nm oligonucleotide, variable deoxy gap position
[8] = 150 nm oligonucleotide, variable deoxy gap position

Substance: 308609 (e[5mC]*eA*eG*e[5mC]*e[5mC]*dA*d[5mC]*dA*dT*dG*d[5mC]*dA*dG*d[5mC]*dT*eT*e[5mC]*eA*eG*eG; antisense) [compound 308609]
- % INHIB 50 nm [1]: 78%
- % INHIB 150 nm [2]: 96%

Substance: 308610 (eA*e[5mC]*e[5mC]*eA*eG*d[5mC]*d[5mC]*dA*d[5mC]*dA*dT*dG*d[5mC]*dA*dG*e[5mC]*eT*eT*e[5mC]*eA; antisense) [compound 308610]
- % INHIB 50 nm [1]: 40%
- % INHIB 150 nm [2]: 90%

Substance: 308611 (eT*eT*eA*e[5mC]*e[5mC]*dA*dG*d[5mC]*d[5mC]*dA*d[5mC]*dA*dT*dG*d[5mC]*eA*eG*e[5mC]*eT*eT; antisense) [compound 308611]
- % INHIB 50 nm [1]: 59%
- % INHIB 150 nm [2]: 95%

Substance: 308612 (eG*eG*eT*eT*eA*d[5mC]*d[5mC]*dA*dG*d[5mC]*d[5mC]*dA*d[5mC]*dA*dT*eG*e[5mC]*eA*eG*e[5mC]; antisense) [compound 308612]
- % INHIB 50 nm [1]: 75%
- % INHIB 150 nm [2]: 90%

Substance: 308613 (eT*eA*eG*eG*eT*dT*dA*d[5mC]*d[5mC]*dA*dG*d[5mC]*d[5mC]*dA*d[5mC]*eA*eT*eG*e[5mC]*eA; antisense) [compound 308613]
- % INHIB 50 nm [1]: 43%
- % INHIB 150 nm [2]: 87%

Substance: 308614 (eT*eT*eT*eA*eG*dG*dT*dT*dA*d[5mC]*d[5mC]*dA*dG*d[5mC]*d[5mC]*eA*e[5mC]*eA*eT*eG; antisense) [compound 308614]
- % INHIB 50 nm [1]: 74%
- % INHIB 150 nm [2]: 92%

Substance: 308615 (e[5mC]*eT*eT*eT*eT*dA*dG*dG*dT*dT*dA*d[5mC]*d[5mC]*dA*dG*e[5mC]*e[5mC]*eA*e[5mC]*eA; antisense) [compound 308615]
- % INHIB 50 nm [1]: 45%
- % INHIB 150 nm [2]: 85%

Substance: 308616 (eT*e[5mC]*e[5mC]*eT*eT*dT*dT*dA*dG*dG*dT*dT*dA*d[5mC]*d[5mC]*eA*eG*e[5mC]*e[5mC]*eA; antisense) [compound 308616]
- % INHIB 50 nm [1]: 39%
- % INHIB 150 nm [2]: 81%

Substance: 308617 (eG*e[5mC]*eT*e[5mC]*e[5mC]*dT*dT*dT*dT*dA*dG*dG*dT*dT*dA*e[5mC]*e[5mC]*eA*eG*e[5mC]; antisense) [compound 308617]
- % INHIB 50 nm [1]: 77%
- % INHIB 150 nm [2]: 87%

Substance: 308618 (eA*eG*eG*e[5mC]*eT*d[5mC]*d[5mC]*dT*dT*dT*dT*dA*dG*dG*dT*eT*eA*e[5mC]*e[5mC]*eA; antisense) [compound 308618]
- % INHIB 50 nm [1]: 61%
- % INHIB 150 nm [2]: 77%

Substance: 308619 (eG*eT*eA*eG*eG*d[5mC]*dT*d[5mC]*d[5mC]*dT*dT*dT*dT*dA*dG*eG*eT*eT*eA*e[5mC]; antisense) [compound 308619]
- % INHIB 50 nm [1]: 69%
- % INHIB 150 nm [2]: 74%

Substance: 308620 (eT*eG*eG*eT*eA*dG*dG*d[5mC]*dT*d[5mC]*d[5mC]*dT*dT*dT*dT*eA*eG*eG*eT*eT; antisense) [compound 308620]
- % INHIB 50 nm [1]: 69%
- % INHIB 150 nm [2]: 88%

Substance: 308621 (eT*eT*eT*eG*eG*dT*dA*dG*dG*d[5mC]*dT*d[5mC]*d[5mC]*dT*dT*eT*eT*eA*eG*eG; antisense) [compound 308621]
- % INHIB 50 nm [1]: 56%
- % INHIB 150 nm [2]: 91%

Substance: 308622 (eG*e[5mC]*e[5mC]*eT*eT*d[5mC]*dT*dG*d[5mC]*dT*dT*dG*dA*dG*dT*eT*eA*e[5mC]*eA*eA; antisense) [compound 308622]
- % INHIB 50 nm [3]: 25%
- % INHIB 150 nm [4]: 87%

Substance: 308623 (eG*e[5mC]*eG*e[5mC]*e[5mC]*dT*dT*d[5mC]*dT*dG*d[5mC]*dT*dT*dG*dA*eG*eT*eT*eA*e[5mC]; antisense) [compound 308623]
- % INHIB 50 nm [3]: 62%
- % INHIB 150 nm [4]: 71%

Substance: 308624 (eT*e[5mC]*eG*e[5mC]*eG*d[5mC]*d[5mC]*dT*dT*d[5mC]*dT*dG*d[5mC]*dT*dT*eG*eA*eG*eT*eT; antisense) [compound 308624]
- % INHIB 50 nm [3]: 69%
- % INHIB 150 nm [4]: 89%

Substance: 308625 (e[5mC]*eT*eT*e[5mC]*eG*d[5mC]*dG*d[5mC]*d[5mC]*dT*dT*d[5mC]*dT*dG*d[5mC]*eT*eT*eG*eA*eG; antisense) [compound 308625]
- % INHIB 50 nm [3]: 64%
- % INHIB 150 nm [4]: 83%

Substance: 308626 (eA*eG*eT*e[5mC]*eT*dG*d[5mC]*dT*dT*d[5mC]*dG*d[5mC]*dG*d[5mC]*d[5mC]*eT*eT*e[5mC]*eT*eG; antisense) [compound 308626]
- % INHIB 50 nm [3]: 38%
- % INHIB 150 nm [4]: 94%

Substance: 308627 (eT*e[5mC]*eA*eG*eT*d[5mC]*dT*dG*d[5mC]*dT*dT*d[5mC]*dG*d[5mC]*dG*e[5mC]*e[5mC]*eT*eT*e[5mC]; antisense) [compound 308627]
- % INHIB 50 nm [3]: 67%
- % INHIB 150 nm [4]: 89%

Substance: 308628 (e[5mC]*e[5mC]*eT*e[5mC]*eA*dG*dT*d[5mC]*dT*dG*d[5mC]*dT*dT*d[5mC]*dG*e[5mC]*eG*e[5mC]*e[5mC]*eT; antisense) [compound 308628]
- % INHIB 50 nm [3]: 61%
- % INHIB 150 nm [4]: 92%

Substance: 308629 (eA*eG*e[5mC]*e[5mC]*eT*d[5mC]*dA*dG*dT*d[5mC]*dT*dG*d[5mC]*dT*dT*e[5mC]*eG*e[5mC]*eG*e[5mC]; antisense) [compound 308629]
- % INHIB 50 nm [3]: 77%
- % INHIB 150 nm [4]: 95%

Substance: 308630 (GCCTCAGTCTGCTTCGCGCC; 0-10-10 MOE gapmer, phosphorothioate, chemistry not fully specified) [compound 308630]
- % INHIB 50 nm [5]: 69%
- % INHIB 150 nm [6]: 89%

Substance: 308631 (AGGTTACCAGCCACATGCAG; 0-10-10 MOE gapmer, phosphorothioate, chemistry not fully specified) [compound 308631]
- % INHIB 50 nm [7]: 74%
- % INHIB 150 nm [8]: 94%

Substance: 308632 (GCCTCAGTCTGCTTCGCACC; 0-10-10 MOE gapmer, phosphorothioate, chemistry not fully specified) [compound 308632]
- % INHIB 50 nm [7]: 41%
- % INHIB 150 nm [8]: 97%

Substance: 308633 (GCCTCAGTCTGCTTCGCGCC; 10-10-0 MOE gapmer, phosphorothioate, chemistry not fully specified) [compound 308633]
- % INHIB 50 nm [5]: 66%
- % INHIB 150 nm [6]: 83%

Substance: 308634 (AGGTTACCAGCCACATGCAG; 10-10-0 MOE gapmer, phosphorothioate, chemistry not fully specified) [compound 308634]
- % INHIB 50 nm [7]: 45%
- % INHIB 150 nm [8]: 67%

Substance: 308635 (GCCTCAGTCTGCTTCGCACC; 10-10-0 MOE gapmer, phosphorothioate, chemistry not fully specified) [compound 308635]
- % INHIB 50 nm [7]: 69%
- % INHIB 150 nm [8]: 93%

Substance: 308636 (GCCTCAGTCTGCTTCGCGCC; all C 5-methyl, all phosphorothioate, sugars by position not given here; further chemistry not fully specified) [compound 308636]
- % INHIB 50 nm [5]: 81%
- % INHIB 150 nm [6]: 91%

Substance: 308637 (AGGTTACCAGCCACATGCAG; 1-10-9 MOE gapmer, phosphorothioate, chemistry not fully specified) [compound 308637]
- % INHIB 50 nm [7]: 79%
- % INHIB 150 nm [8]: 95%

Substance: 308638 (GCCTCAGTCTGCTTCGCACC; 1-10-9 MOE gapmer, phosphorothioate, chemistry not fully specified) [compound 308638]
- % inhibition of apolipoprotein B mRNA levels (12.5 nM oligonucleotide): 42%
- % inhibition of apolipoprotein B mRNA levels (37 nM oligonucleotide): 73%
- % inhibition of apolipoprotein B mRNA levels (75 nM oligonucleotide): 91%
- % inhibition of apolipoprotein B mRNA levels (150 nM oligonucleotide): 96%
- % inhibition of apolipoprotein B mRNA levels (300 nM oligonucleotide): 97%
- % INHIB 50 nm [7]: 91%
- % INHIB 150 nm [8]: 94%

Substance: 308639 (GCCTCAGTCTGCTTCGCGCC; all C 5-methyl, all phosphorothioate, sugars by position not given here; further chemistry not fully specified) [compound 308639]
- % INHIB 50 nm [5]: 86%
- % INHIB 150 nm [6]: 94%

Substance: 308640 (AGGTTACCAGCCACATGCAG; 2-10-8 MOE gapmer, phosphorothioate, chemistry not fully specified) [compound 308640]
- % INHIB 50 nm [7]: 76%
- % INHIB 150 nm [8]: 96%

Substance: 308641 (GCCTCAGTCTGCTTCGCACC; 2-10-8 MOE gapmer, phosphorothioate, chemistry not fully specified) [compound 308641]
- % INHIB 50 nm [7]: 77%
- % INHIB 150 nm [8]: 89%

Substance: 308642 (GCCTCAGTCTGCTTCGCGCC; 3-10-7 MOE gapmer, phosphorothioate, chemistry not fully specified) [compound 308642]
- % inhibition of apolipoprotein B mRNA levels (12.5 nM oligonucleotide): 59%
- % inhibition of apolipoprotein B mRNA levels (37 nM oligonucleotide): 84%
- % inhibition of apolipoprotein B mRNA levels (75 nM oligonucleotide): 91%
- % inhibition of apolipoprotein B mRNA levels (150 nM oligonucleotide): 97%
- % inhibition of apolipoprotein B mRNA levels (300 nM oligonucleotide): 98%
- % INHIB 50 nm [5]: 85%
- % INHIB 150 nm [6]: 95%

Substance: 308643 (antisense AGGTTACCAGCCACATGCAG; 3-10-7 2'-MOE gapmer, phosphorothioate, chemistry not fully specified) [compound 308643]
- % INHIB 50 nm [7]: 56%
- % INHIB 150 nm [8]: 96%

Substance: 308644 (antisense GCCTCAGTCTGCTTCGCACC; 3-10-7 2'-MOE gapmer, phosphorothioate, chemistry not fully specified) [compound 308644]
- % INHIB 50 nm [7]: 71%
- % INHIB 150 nm [8]: 93%
